Reference: US9334314B2, “Peptide compounds derived from melanotransferrin and uses thereof” (Theratechnologies Inc., priority 2011, dated 2016)

Experiments:
[1] = system: Human NCI-H460 lung carcinoma tumor xenograft; experiment: Xenograft model antitumor assay, NCI-H460; format: in vivo, nude mice; conditions: 40 mg/Kg/day; for inhibition of NCI-460 tumor growth: nude mice (FIG. 5A); for NCI-460 tumor growth: nude mice (FIGS. 3A to 3C)
Experimental: (§1) For tumor cell inoculation in nude mice, U-87 MG or NCI-H460 cells were harvested by trypsinization using a trypsin/EDTA solution. Cells were washed two times with phosphate-buffered saline Ca^2+—Mg^2+ free (PBS-CMF) and centrifuged. The resulting pellet was resuspended in 1% methyl-cellulose in serum-free EMEM at a concentration of 2.5×10^6 cells per 100 μL. Specific pathogen-free, female Crl:CD-1®-nuBR nude mice were anesthetized by O2/isoflurane inhalation and tumors were established by subcutaneous injection of 100 μL from cell suspension into the right flank. Tumors were measured in O2/isoflurane anesthetized mice twice a week using a digital caliper and tumor volume was calculated as: π/6×length×width^2. When the first mouse from control group held a tumor reaching 1000 mm^3, tumors were photographed and mice from every group were sacrificed. Experiments were performed on 8 animals for each group. Recombinant sMTf treatment toxicity was evaluated by monitoring the body weight of control and treated mice, considering that a weight loss>20% results in a toxic effect.

[2] = system: Human U87 glioblastoma tumor xenograft; experiment: Xenograft model antitumor assay, U87; format: in vivo, nude mice; conditions: 40 mg/Kg/day; for inhibition of U87 tumor growth: nude mice (FIG. 5B); for U87 tumor growth: nude mice (FIGS. 4A and 4B)
Experimental: as §1

[3] = system: in vivo neovascularisation induced by the growth factors FGF-2 and VEGF; experiment: Matrigel plug angiogenesis assay; conditions: induced by FGF-2 and VEGF, nude mice, 7 days (FIG. 7)
Experimental: Angiogenesis is considered to be indicated by the growth of blood vessels from subcutaneous tissue into a solid piece of Matrigel™. Specific pathogen-free, female Crl:CD-1®-nuBR nude mice were obtained from Charles River Laboratories (Lasalle, QC). All of the mice used were 5-10 weeks of age. Prior to injection, heparin was incubated with or without bFGF (250 ng/mL) and VEGF165 (200 ng/mL) for 5 min, then 1 mL of MEM was added and the mixture diluted into phenol red-free Matrigel™ on ice for a final concentration of 12.4 μg/mL heparin. Then, specific pathogen-free, female Crl:CD-1®-nuBR nude mice were subcutaneously injected under anesthesia in the right flank with 0.5 mL of Matrigel™ alone or with Matrigel™ containing bFGF and VEGF. After 7 days, mice were sacrificed and Matrigel™ implants were harvested, washed with PBS and photographed. The remaining implants were immediately frozen and lyophilized overnight in order to evaluate the hemoglobin (Hb) concentrations. Testing of anti-angiogenic substances was initiated at the time of Matrigel™ implantation. Samples were then crushed and resuspended in 0.1% Triton™ X-100. Samples were mixed frequently for 1 h and centrifuged at 12,000×g for 15 min to remove particles. The concentration of hemoglobin (Hb) in the supernatant was then determined directly by measuring the absorbance at 405 nm and compared with a standard curve of purified Hb Hemoglobin content was expressed in μg Hb/mg of dried sample.

[4] = system: HMEC-1 endothelial cells; experiment: In vitro cell migration, HMEC-1 (Transwell / modified Boyden chambers); format: cell-based; conditions: various concentrations, dose-dependent manner (FIG. 2C)
Experimental: (§2) HMEC-1 and NCI-H460 cell migration was performed using Transwell filters (8 μm pore size) pre-coated with 0.15% gelatin for 2 hours at 37° C. or overnight at 4° C. The Transwell filters were washed once with PBS and assembled in 24-well plates. To study the effect of sMTf-derived peptides on cell migration, the lower chambers were filled with 300 μL of serum-free cell culture medium with or without various concentrations of peptides (2×). […] Approximately 50 000 cells (HMEC-1) and 100 000 cells (NCI-H460) were resuspended in 100 μL of serum free medium and added into the upper chamber of each Transwell. Then, 400 μL of serum free medium were added into the lower chamber with or without various concentrations of peptides (2×). After 1 hour incubation, 300 μL of cell culture medium containing 20% serum were added in the lower chamber to stimulate cell migration (final peptide concentration 1×). The plates were then placed at 37° C. in 5% CO2195% air for 4 hours (HMEC-1) or 18 hours (NCI-H460). Cells that had migrated to the lower surface of the filters were fixed for 30 minutes with 10% formalin, stained 30 minutes with 0.1% crystal violet/20% MeOH, and washed twice with PBS. […] The cell migration was quantified in four fields per filters at 50× magnification using microscopy computer-assisted imaging (Northern Eclipse™ software). Results are expressed as a percentage of cell migration of treated cells compared to untreated cells.

[5] = system: NCI-H460 pulmonary carcinoma cells; experiment: In vitro cell migration, NCI-H460 (Transwell / modified Boyden chambers); format: cell-based, human; conditions: various concentrations, dose-dependent manner (FIG. 2D)
Experimental: as §2

[6] = molecular target: plasminogen activation by urokinase-type plasminogen activator (uPA) (Homo sapiens, UniProt P00749); experiment: In vitro plasminogen activation by uPA (colorimetric VLK-pNA assay); format: biochemical; conditions: various concentrations of peptide (FIG. 1B)
Experimental: The in vitro enzymatic activity of uPA was measured using a colorimetric assay. To study the effect of sMTf-derived peptides on plasminogen activation by uPA, the reaction was performed in plasminogen activation buffer (50 mM Tris/HCl (pH 7.5), 150 mM NaCl and 50 mM CaCl2) in a final volume of 200 μL. This incubation medium also contained 30 nM plasminogen and 15 μg of the chromogenic plasmin substrate D-Val-Leu-Lys p-nitroanilide (VLK-pNA). The reaction was started by the addition of 1 ng of uPA. In this assay, the cleavage of VLK-pNA results in a p-nitroaniline molecule that absorbs at 405 nm. The reaction product was monitored at 37° C. during 3 hours every 2 minutes using a Microplate Thermomax™ Autoreader. The velocity of the VLK-pNA hydrolysis reaction was calculated and results are expressed in mAU/min.

[7] = system: HMEC-1 endothelial cells; conditions: up to 50 μM, 24 hours incubation (FIG. 6)
Experimental: (§3) sMTf-derived peptides cellular toxicity on HMEC-1 and NCI-H460 were performed using [methyl-^3H]-thymidine incorporation assay. […] Approximately 5000 cells (HMEC-1 and NCI-H460) were resuspended with 200 μL of fresh culture medium, seeded into white 96-wells plate and placed at 37° C. in 5% CO2/95% air. After 24 hours, the medium was removed and 200 μL of serum-free cell culture medium was added to synchronize the cells. After another 24 hours, the medium was removed and 200 μL of fresh complete medium with or without various peptide concentrations were added. After 24 hours incubation with the peptides, the medium was remove and 200 μL (0.5 μCi) of [methyl-^3H]-thymidine was added and placed at 37° C. in 5% CO2/95% air for 4 hours. Then, the wells were gently washed twice with PBS at 37° C., incubated with 200 μL of EtOH:Acetic acid (3:1) for 10 minutes and dried under the hood. 50 μL of Microscint™-O was added per well, the plate was sealed, agitated for 3 minutes, and read on the microplate scintillation and luminescence counter (TopCount NXT, Packard). Results are expressed as a percentage of cell viability of treated cells compared to untreated cells.

[8] = system: NCI-H460 pulmonary carcinoma cells; conditions: up to 50 μM, 24 hours incubation (FIG. 6)
Experimental: as §3

Ac-F-R-C-L-V-E-N-A-G-D-V-A-F-V-R-H-K-K-K-NH2 (Ac-FRCLVENAGDVAFVRHKKK-NH2) [SEQ ID NO: 5]
inhibition of NCI-460 tumor growth [1]: 45% | NCI-460 tumor growth [1]: inhibit NCI-460 tumor growth | inhibition of U87 tumor growth [2]: 39% | U87 tumor growth [2]: inhibit U87 tumor growth | in vivo neovascularisation of Matrigel implant (hemoglobin content) [3]: inhibit in vivo neovascularisation

Ac-F-R-C-L-V-E-N-A-G-D-V-P-F-V-R-H-NH2 (Ac-FRCLVENAGDVPFVRH-NH2) [SEQ ID NO: 7]
in vivo neovascularisation of Matrigel implant (hemoglobin content) [3]: inhibit in vivo neovascularisation

Ac-F-R-C-L-V-E-N-R-G-D-V-P-F-V-K-R-E-R-F-NH2 (Ac-FRCLVENRGDVPFVKRERF-NH2) [SEQ ID NO: 13]
migration of HMEC-1 cells [4]: inhibit the migration | migration of NCI-H460 cells [5]: inhibit the migration | in vivo neovascularisation of Matrigel implant (hemoglobin content) [3]: inhibit in vivo neovascularisation

Ac-F-R-C-L-V-E-N-R-G-D-V-P-F-V-T-R-I-R-NH2 (Ac-FRCLVENRGDVPFVTRIR-NH2) [SEQ ID NO: 15]
migration of HMEC-1 cells [4]: inhibit the migration | migration of NCI-H460 cells [5]: inhibit the migration | inhibition of NCI-460 tumor growth [1]: 37% | inhibition of U87 tumor growth [2]: 74% | U87 tumor growth [2]: inhibit U87 tumor growth | in vivo neovascularisation of Matrigel implant (hemoglobin content) [3]: inhibit in vivo neovascularisation

Ac-FRCLVENAGDVAFVRH-NH2 [SEQ ID NO: 2, Ac-F-R-C-L-V-E-N-A-G-D-V-A-F-V-R-H-NH2]
plasminogen cleavage by uPA [6]: stimulates plasminogen cleavage by uPA in a dose-dependent manner | migration of HMEC-1 cells [4]: inhibit the migration | migration of NCI-H460 cells [5]: inhibit the migration | cellular toxicity on HMEC-1 cells [7]: do not demonstrate any cellular toxicity | cellular toxicity on NCI-H460 cells [8]: do not demonstrate any cellular toxicity

Ac-YSGAFRMLAEGAGDVAFVKHKKK-NH2 (Ac-YSGAFRMLAEGAGDVAFVKHKKK-NH2) [SEQ ID NO: 9]
inhibition of NCI-460 tumor growth [1]: 42% | NCI-460 tumor growth [1]: inhibit NCI-460 tumor growth | in vivo neovascularisation of Matrigel implant (hemoglobin content) [3]: inhibit in vivo neovascularisation

SEQ ID NO: 10: sMTf-derived peptide; sequence shown only as a drawing in Table II (FRCLVENAGDVAFVRHKKKKKKKHRVFAVDGANEVLCRF)
inhibition of NCI-460 tumor growth [1]: 69% | NCI-460 tumor growth [1]: inhibit NCI-460 tumor growth
